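Briefly, cells in 96-well plates were exposed to five compound concentrations for 48 h, and endpoints were estimated by linear interpolation. The concentration for 50% growth inhibition is given as GI50. TGI marks complete inhibition of growth.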
How the values were obtained:
Test in all cases: NCI-60 cell line screen, 48 h
[1] = test system: SNB-19 CNS
[2] = test system: HCT-15 colon
[3] = test system: NCI-H23 lung
[4] = test system: SK-MEL-28 melanoma
[5] = test system: PC-3 prostate
[6] = test system: NCI-H522 lung
[7] = test system: SN12C renal
[8] = test system: ACHN renal
[9] = test system: OVCAR-3 ovarian
[10] = test system: OVCAR-5 ovarian
[11] = test system: OVCAR-8 ovarian
[12] = test system: OVCAR-4 ovarian
[13] = test system: MALME-3M melanoma
[14] = test system: K-562 leukemia
[15] = test system: T-47D breast
[16] = test system: CCRF-CEM leukemia
[17] = test system: RPMI-8226 leukemia
[18] = test system: KM12 colon
[19] = test system: SNB-75 CNS
[20] = test system: 786-0 renal
[21] = test system: MDA-MB-231 breast
[22] = test system: UACC-257 melanoma
[23] = test system: HT29 colon
[24] = test system: BT-549 breast
[25] = test system: COLO 205 colon
[26] = test system: RXF 393 renal
[27] = test system: HCT-116 colon
[28] = test system: SF-295 CNS
[29] = test system: SW-620 colon
[30] = test system: SK-OV-3 ovarian
[31] = test system: MDA-MB-435
[32] = test system: SF-268 CNS
[33] = test system: SR leukemia
[34] = test system: DU-145 prostate
[35] = test system: NCI-H460 lung
[36] = test system: SK-MEL-2 melanoma
[37] = test system: MCF7 breast
[38] = test system: NCI/ADR-RES ovarian
[39] = test system: HCC-2998 colon
[40] = test system: TK-10 renal
[41] = test system: HS 578T breast
[42] = test system: SK-MEL-5 melanoma
[43] = test system: UO-31 renal
[44] = test system: A498 renal
[45] = test system: IGROV1 ovarian
[46] = test system: MOLT-4 leukemia
[47] = test system: M14 melanoma
[48] = test system: HOP-92 NSCLC
[49] = test system: HL-60(TB) leukemia
[50] = test system: A549 NSCLC
[51] = test system: U251 CNS
[52] = test system: NCI-H226 lung
[53] = test system: UACC-62 melanoma
[54] = test system: LOX IMVI melanoma
[55] = test system: EKVX NSCLC
[56] = test system: SF-539 CNS
[57] = test system: HOP-62 NSCLC

## CN1C(=O)c2cc(Cl)nc3c(NC(=O)c4cccc(Cl)c4)c(Cl)c(NC(=O)c4cccc(Cl)c4)c1c23
[1]
  GI50: 2450 nM
  TGI: 6.08 µM
[2]
  GI50: 581 nM
  TGI: 1940 nM
[3]
  GI50: 2140 nM
  TGI: 5.92 µM
[4]
  GI50: 1780 nM
  TGI: 3.45 µM
[5]
  GI50: 1930 nM
  TGI: 3.99 µM
[6]
  GI50: 1820 nM
  TGI: 3750 nM
[7]
  GI50: 1840 nM
  TGI: 3.48 µM
[8]
  GI50: 1720 nM
  TGI: 3.09 µM
[9]
  GI50: 1920 nM
  TGI: 3570 nM
[10]
  GI50: 12.8 µM
  TGI: 30.1 µM
[11]
  GI50: 2480 nM
  TGI: 5.7 µM
[12]
  GI50: 1700 nM
  TGI: 3.3 µM
[13]
  GI50: 1660 nM
  TGI: 3.44 µM
[14]
  GI50: 1010 nM
  TGI: 2570 nM
[15]
  GI50: 1770 nM
  TGI: 4.32 µM
[16]
  GI50: 2010 nM
  TGI: 5.59 µM
[17]
  GI50: 3630 nM
  TGI: 32.6 µM
[18]
  GI50: 3440 nM
  TGI: 15.5 µM
[19]
  GI50: 1450 nM
  TGI: 2840 nM
[20]
  GI50: 2690 nM
  TGI: 7.96 µM
[21]
  GI50: 2050 nM
  TGI: 4.24 µM
[22]
  GI50: 1910 nM
  TGI: 3.55 µM
[23]
  GI50: 1970 nM
  TGI: 4.05 µM
[24]
  GI50: 1640 nM
  TGI: 3190 nM
[25]
  GI50: 1940 nM
  TGI: 4010 nM
[26]
  GI50: 1670 nM
  TGI: 3.12 µM
[27]
  GI50: 1310 nM
  TGI: 2690 nM
[28]
  GI50: 2870 nM
  TGI: 11.6 µM
[29]
  GI50: 1780 nM
  TGI: 3.93 µM
[30]
  GI50: 4980 nM
  TGI: 17.4 µM
[31]
  GI50: 1700 nM
  TGI: 3200 nM
[32]
  GI50: 1830 nM
  TGI: 3.73 µM
[33]
  GI50: 580 nM
  TGI: 2950 nM
[34]
  GI50: 2280 nM
  TGI: 5.19 µM
[35]
  GI50: 2340 nM
  TGI: 5.17 µM
[36]
  GI50: 2190 nM
  TGI: 4.35 µM
[37]
  GI50: 1940 nM
  TGI: 6.26 µM
[38]
  GI50: 3380 nM
  TGI: 17.3 µM
[39]
  GI50: 1760 nM
  TGI: 3.41 µM
[40]
  GI50: 2280 nM
  TGI: 5.84 µM
[41]
  GI50: 2480 nM
  TGI: 7.16 µM
[42]
  GI50: 2090 nM
  TGI: 4.36 µM
[43]
  GI50: 1710 nM
  TGI: 3.44 µM
[44]
  GI50: 3490 nM
  TGI: 12.7 µM
[45]
  GI50: 1420 nM
  TGI: 3.15 µM
[46]
  GI50: 2070 nM
  TGI: 5.21 µM
[47]
  GI50: 1470 nM
  TGI: 3.03 µM
[48]
  GI50: 1710 nM
  TGI: 3.41 µM
[49]
  GI50: 2170 nM
  TGI: 5110 nM
[50]
  GI50: 4140 nM
  TGI: 14.8 µM
[51]
  GI50: 1820 nM
  TGI: 3.24 µM
[52]
  GI50: 2020 nM
  TGI: 4.05 µM
[53]
  GI50: 1920 nM
  TGI: 3.76 µM
[54]
  GI50: 1210 nM
  TGI: 2580 nM
[55]
  GI50: 1850 nM
  TGI: 4.21 µM
[56]
  GI50: 1670 nM
  TGI: 3390 nM

## COC(=O)[C@H](Cc1ccccc1)NC(=O)c1csc([C@@H](C[C@H](C(C)C)N(C)C(=O)[C@@H](NC(=O)[C@H]2CCCCN2C)C2CC2)OC(C)=O)n1
[1]
  TGI: > 25 µM
[2]
  GI50: 91.5 nM
  TGI: > 25000 nM
[3]
  GI50: 146 nM
  TGI: > 25 µM
[4]
  GI50: 1010 nM
  TGI: > 25 µM
[5]
  GI50: 50.9 nM
  TGI: > 25 µM
[6]
  GI50: 6.54 nM
  TGI: 300 nM
[7]
  GI50: 103 nM
  TGI: > 25 µM
[8]
  GI50: 150 nM
  TGI: > 25 µM
[9]
  GI50: 10.2 nM
  TGI: 63 nM
[10]
  GI50: 0.316 µM
  TGI: > 25 µM
[11]
  GI50: 89.8 nM
  TGI: > 25 µM
[12]
  GI50: 1620 nM
  TGI: > 25 µM
[13]
  GI50: 2160 nM
  TGI: > 25 µM
[14]
  GI50: 11.8 nM
  TGI: > 25000 nM
[15]
  GI50: > 25000 nM
  TGI: > 25 µM
[16]
  GI50: 21 nM
  TGI: > 25 µM
[17]
  GI50: 19 nM
  TGI: > 25 µM
[18]
  GI50: 84.4 nM
  TGI: > 25 µM
[19]
  GI50: 25.7 nM
  TGI: > 25000 nM
[20]
  GI50: 64 nM
  TGI: > 25 µM
[21]
  GI50: 76.3 nM
  TGI: > 12.5 µM
[22]
  GI50: > 10700 nM
  TGI: > 25 µM
[23]
  GI50: 17.5 nM
  TGI: > 25 µM
[24]
  GI50: 34.9 nM
  TGI: 556 nM
[25]
  GI50: 48 nM
  TGI: 362 nM
[26]
  GI50: 35.1 nM
  TGI: > 25 µM
[27]
  GI50: 19.7 nM
  TGI: > 25000 nM
[28]
  GI50: 33.4 nM
  TGI: > 25 µM
[29]
  GI50: 16.7 nM
  TGI: > 25 µM
[30]
  GI50: 121 nM
  TGI: > 25 µM
[31]
  GI50: 8.84 nM
  TGI: 84.1 nM
[32]
  GI50: 111 nM
  TGI: > 25 µM
[33]
  GI50: 5.63 nM
  TGI: > 25000 nM
[34]
  GI50: 21.8 nM
  TGI: > 25 µM
[35]
  GI50: 54.6 nM
  TGI: > 25 µM
[36]
  GI50: 492 nM
  TGI: > 25 µM
[37]
  GI50: 10.8 nM
  TGI: > 25 µM
[38]
  GI50: 2050 nM
  TGI: > 25 µM
[39]
  GI50: 162 nM
  TGI: > 25 µM
[40]
  GI50: 473 nM
  TGI: > 25 µM
[41]
  GI50: 24.5 nM
  TGI: 14.5 µM
[42]
  GI50: 52.1 nM
  TGI: 3.37 µM
[43]
  GI50: 258 nM
  TGI: > 25 µM
[44]
  GI50: 69.3 nM
  TGI: 1.67 µM
[45]
  GI50: 45.2 nM
  TGI: > 25 µM
[46]
  GI50: 36.2 nM
  TGI: > 25 µM
[47]
  GI50: 32.8 nM
[57]
  GI50: 74.9 nM
  TGI: > 25 µM
[48]
  GI50: 137 nM
  TGI: 4.18 µM
[49]
  GI50: 13.7 nM
  TGI: 193 nM
[50]
  GI50: 99.1 nM
  TGI: > 25 µM
[51]
  GI50: 66.9 nM
  TGI: > 25 µM
[52]
  GI50: 2590 nM
  TGI: > 25 µM
[53]
  GI50: 247 nM
  TGI: > 25 µM
[54]
  GI50: 40.3 nM
  TGI: > 25000 nM
[55]
  GI50: 119 nM
  TGI: > 25 µM
[56]
  GI50: 37.6 nM
  TGI: 194 nM

Source: PubChem BioAssay (NCI)
